Assay results taken from patent publication US20230129485A1, “SYSTEM AND METHOD FOR DETERMINING MATERIAL PROPERTIES OF MOLECULAR SYSTEMS FROM AN AB-INITIO PARAMETERIZED FORCE-FIELD” (InterX, Inc., priority 2021, published 2023).
Read-outs that look alike come from different tables or passages of the source.

Columns and labels:
[1] = Free energy of hydration by COSMO implicit solvent model (MolPro ver. 2012); conditions: absolute error vs Exp (hydration)
Outline: (§1)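 Hydration energies come from continuum solvent models. Those for COSMO were computed with MolPro. SMD and PCM results were received, and the SMD, PCM and COSMO-RS sets each cover just the molecules in common with the QM-parameterized force-field calculations.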

[2] = Table 5; free energy of hydration, AMOEBA prediction taken from literature; cited from earlier work
[3] = experimental, cited from earlier work
[4] = Free energy of hydration predicted by General Amber Force Field (GAFF), from literature; conditions: Table 5; error of GAFF hydration free energy vs experiment
[5] = Free energy of hydration predicted with the QM-parameterized force field model (ARROW FF), classical MD and PIMD simulation in a water box; conditions: for Arrow error: Table 5, error of Arrow PIMD8 hydration free energy vs experiment; for Arrow PIMD8 Error: absolute error vs Exp (hydration)
Outline: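 Classical and PIMD runs (MTS integrator, MTTK barostat at 1 atm) followed minimization and 50 ps equilibration, with 1 ns NPT production per window. Fifteen unequally spaced lambda windows removed all solute-solvent interactions simultaneously in a 32 Å water box. Hydration free energy computed by Bennett acceptance ratio and thermodynamic integration.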

[6] = Free energy of hydration by Polarizable Continuum Model (PCM); conditions: absolute error vs Exp (hydration)
Outline: as §1

[7] = implicit solvent model, values received; cited from earlier work
[8] = Free energy of hydration by Solvation Model Dielectric (SMD) implicit solvent model; conditions: absolute error vs Exp (hydration)
Outline: as §1

[9] = Free energy of hydration by COSMO-RS
Outline: as §1

[10] = Free energy of hydration by Free Energy Machine Learning Model (FML); conditions: absolute error vs Exp (hydration)
Source text: Machine learning models can be used for free energy determination.

[11] = Free energy of hydration predicted by polarizable AMOEBA force field, from literature; conditions: Table 5; error of AMOEBA hydration free energy vs experiment
[12] = experimental, cited from earlier work; for Exp (hydration): Table 5
[13] = implicit solvent model, values received; cited from earlier work; remark: listed apart in the source
[14] = Table 5; free energy of hydration, GAFF prediction taken from literature; cited from earlier work
[15] = Free energy of solvation in cyclohexane predicted with the QM-parameterized force field model (ARROW FF), MD and PIMD; conditions: Table 4; for CHEX Arrow MD Error: error of MD cyclohexane solvation free energy vs experiment; for CHEX Arrow PIMD4 Error: error of PIMD4 cyclohexane solvation free energy vs experiment
Outline: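 Solute–cyclohexane interactions decoupled over 15 λ points with soft-core scaling, in MD and path-integral simulations under NPT at 1 atm using PME electrostatics and 9 Å cutoffs. Each window had 50 ps equilibration and 1 ns production; free energies from BAR and TI.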

[16] = CHEX/H2O partition coefficient, experimental, cited from earlier work; for Exp (log D): Table 3; for logD Exp (logD): Table 4
[17] = CHEX/H2O partition coefficient (log D) predicted with the QM-parameterized force field model (ARROW FF)
Outline: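 Cyclohexane/water partition coefficients were predicted by molecular simulation with a QM-parameterized force field, with bonded force constants and equilibrium values fitted to MP2/aug-cc-pVTZ energies. Solutes carried neutral functional groups, and results from four independent groups were averaged.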

[18] = Bulk solvent properties (density, heat of vaporization, self-solvation) predicted with the QM-parameterized force field model (AFF MD / PIMD); conditions: within chemical accuracy
Source text: Particle-Mesh Ewald (PME) algorithm was used to compute the electrostatic interactions. A 32×32×32 grid mesh and 5th power spline interpolation order can be used to compute the inverse PME sum. 9 Å cutoffs were used to compute the direct PME sum as well as the exchange and dispersion interactions. Bulk corrections were applied to account for distance cut-off of dispersion interactions. Solvation free energies were computed by decoupling the interactions between the solute and the solvent molecules. Electrostatic, exchange-repulsion and dispersion interactions were switched off simultaneously using a lambda-dependent scaling (a scaling factor power=2 was used) and a soft-coring algorithm (maximal soft-coring radius=1.5 Å, soft-coring radius scaling factor power=1). 15 lambda points unequally spaced (X=0, 0.05, 0.1, 0.2, 0.3, 0.4, 0.5, 0.6, 0.7, 0.75, 0.8, 0.85, 0.9, 0.95, 1.0) were used to decouple the solute-solvent intermolecular interactions.
In some simulations of the QM-parameterized force field molecular simulation process, energy minimization (10,000 steps) using the steepest descent algorithm was initially performed on all the simulation systems. This was followed by a 50 ps equilibration and 1 ns production runs in the isothermal-isobaric ensemble (NPT). […] Pressure was maintained at 1 atm using a MTTK barostat (relaxation time=5 ps). […]

[19] = experimental; cited from earlier work
[20] = Table 3, free energy of solvation in cyclohexane
[21] = Table 3, absolute error of MD hydration free energy vs experiment
[22] = Table 3, absolute error of PIMD8 hydration free energy vs experiment
[23] = Table 3, free energy of hydration
[24] = Table 4, solvation free energy in cyclohexane
[25] = Table 4, error of MD hydration free energy vs experiment
[26] = Table 4, error of PIMD8 hydration free energy vs experiment
[27] = Table 4, neutral amino-acid analogues

SMILES: CCCO [Propanol]
- COSMO/Molpro Error [1]: 1.30 kcal/mol
- AMOEBA [2]: -4.85 kcal/mol
- CHEX Exp (solvation) [3, 20]: -2.73 kcal/mol
- GAFF error [4]: 1.80 kcal/mol
- water Arrow MD Error [5, 21]: 0.58 kcal/mol
- water Arrow PIMD8 Error [5, 22]: 0.18 kcal/mol
- Arrow error [5]: 0.18 kcal/mol
- Arrow PIMD8 Error [5]: 0.18 kcal/mol
- PCM Error [6]: 1.82 kcal/mol
- SMD free energy of hydration [7]: -4.10 kcal/mol
- SMD Error [8]: 0.82 kcal/mol
- COSMO-RS error [9]: 0.12 kcal/mol
- FML error [10]: 0.11 kcal/mol
- AMOEBA error [11]: 0.07 kcal/mol
- water Exp (hydration) [12, 23]: -4.92 kcal/mol
- Exp (hydration) ([12]; free energy of hydration): -4.92 kcal/mol
- PCM free energy of hydration [13]: -3.10 kcal/mol
- GAFF [14]: -3.12 kcal/mol

SMILES: CCC [Propane]
- CHEX Arrow MD Error [15]: 0.23 kcal/mol
- CHEX Arrow PIMD4 Error [15]: 0.05 kcal/mol
- COSMO/Molpro Error [1]: 2.43 kcal/mol
- AMOEBA [2]: 1.69 kcal/mol
- CHEX Exp (solvation) [3, 20]: -2.03 kcal/mol
- CHEX Exp (solvation) [3, 24]: -2.03 kcal/mol
- GAFF error [4]: 0.60 kcal/mol
- water Arrow MD Error [5, 21]: 0.66 kcal/mol
- water Arrow PIMD8 Error [5, 22]: 0.00 kcal/mol
- water Arrow MD Error [5, 25]: 0.66 kcal/mol
- water Arrow PIMD8 Error [5, 26]: 0.00 kcal/mol
- Arrow error [5]: 0.00 kcal/mol
- Arrow PIMD8 Error [5]: 0.00 kcal/mol
- PCM Error [6]: 2.06 kcal/mol
- Exp (log D) [16]: 2.93
- logD Exp (logD) [16]: 2.93
- log D Arrow MD Error [17]: 0.31
- log D Arrow PIMD Error [17]: 0.04
- logD Arrow MD Error [17]: 0.31
- logD Arrow PIMD Error [17]: 0.04
- SMD free energy of hydration [7]: 1.80 kcal/mol
- SMD Error [8]: 0.16 kcal/mol
- COSMO-RS error [9]: 0.05 kcal/mol
- FML error [10]: 0.50 kcal/mol
- AMOEBA error [11]: 0.27 kcal/mol
- water Exp (hydration) [12, 23]: 1.96 kcal/mol
- water Exp (hydration) [12, 27]: 1.96 kcal/mol
- Exp (hydration) ([12]; free energy of hydration): 1.96 kcal/mol
- PCM free energy of hydration [13]: -0.10 kcal/mol
- GAFF [14]: 2.56 kcal/mol

SMILES: C [Methane]
- CHEX Arrow MD Error [15]: 0.01 kcal/mol
- CHEX Arrow PIMD4 Error [15]: 0.04 kcal/mol
- COSMO/Molpro Error [1]: 2.35 kcal/mol
- AMOEBA [2]: 1.73 kcal/mol
- CHEX Exp (solvation) [3, 20]: 0.14 kcal/mol
- CHEX Exp (solvation) [3, 24]: 0.14 kcal/mol
- GAFF error [4]: 0.24 kcal/mol
- water Arrow MD Error [5, 21]: 0.32 kcal/mol
- water Arrow PIMD8 Error [5, 22]: 0.09 kcal/mol
- water Arrow MD Error [5, 25]: 0.32 kcal/mol
- water Arrow PIMD8 Error [5, 26]: 0.09 kcal/mol
- Arrow error [5]: 0.09 kcal/mol
- Arrow PIMD8 Error [5]: 0.09 kcal/mol
- PCM Error [6]: 2.06 kcal/mol
- Exp (log D) [16]: 1.33
- logD Exp (logD) [16]: 1.33
- log D Arrow MD Error [17]: 0.25
- log D Arrow PIMD Error [17]: 0.09
- logD Arrow MD Error [17]: 0.25
- logD Arrow PIMD Error [17]: 0.09
- SMD free energy of hydration [7]: 2.20 kcal/mol
- SMD Error [8]: 0.24 kcal/mol
- COSMO-RS error [9]: 0.20 kcal/mol
- FML error [10]: 1.59 kcal/mol
- AMOEBA error [11]: 0.23 kcal/mol
- water Exp (hydration) [12, 23]: 1.96 kcal/mol
- water Exp (hydration) [12, 27]: 1.96 kcal/mol
- Exp (hydration) ([12]; free energy of hydration): 1.96 kcal/mol
- PCM free energy of hydration [13]: -0.10 kcal/mol
- GAFF [14]: 2.20 kcal/mol

SMILES: C1CCCCC1 [Cyclohexane]
- agreement of bulk energetics [18]: ≤ 0.5 kcal/mol
- COSMO/Molpro Error [1]: 1.71 kcal/mol
- CHEX Exp (solvation) [3, 20]: -4.42 kcal/mol
- water Arrow MD Error [5, 21]: 1.03 kcal/mol
- water Arrow PIMD8 Error [5, 22]: 0.10 kcal/mol
- Arrow PIMD8 Error [5]: 0.10 kcal/mol
- PCM Error [6]: 1.33 kcal/mol
- Exp (log D) [16]: 4.14
- log D Arrow MD Error [17]: 0.89
- log D Arrow PIMD Error [17]: 0.36
- Density [19]: 0.790 g/cc
- Hvap [19]: 7.91 kcal/mol
- self-solvation [19]: -4.42 kcal/mol
- SMD free energy of hydration [7]: 1.40 kcal/mol
- SMD Error [8]: 0.17 kcal/mol
- COSMO-RS error [9]: 0.10 kcal/mol
- water Exp (hydration) [12, 23]: 1.23 kcal/mol
- Hydration [12]: 1.20 kcal/mol
- PCM free energy of hydration [13]: -0.10 kcal/mol
